Test results taken from patent US20260317309A1, “N-HETEROCYLIC GPCR RECEPTOR AGONISTS, PHARMACEUTICAL COMPOSITIONS COMPRISING THE SAME, AND METHODS FOR THEIR USE” (Carmot Therapeutics, Inc., priority 2022, published 2026).

Target: T1, human GLP-1 receptor (Homo sapiens, UniProt P43220)
T1 construct: expressed in transfected cells
Test: GLP-1R cAMP assay (cAMP accumulation in CHO cells stably overexpressing the human GLP-1 receptor, HitHunter kit)
Type: cell-based
Conditions: CHO cells stably overexpressing human GLP-1R, 30 min, 20-point dose response in triplicate
Protocol: CAMP accumulation was measured in Chinese hamster ovary (CHO) cells (10,000 cells/well) stably overexpressing the human GLP-1 receptor using the HitHunter CAMP Assay for Small Molecules Kit (Eurofins). Briefly, cells were grown in Ham's F12 Nutrient Mix with 10% FBS, and lifted with Cell Dissociation Buffer, Enzyme free, PBS based (ThermoFisher). Cells were pelleted, and resuspended in Hank's buffered saline solution with 10 mM HEPES, and 625 μM 3-isobutyl-1-methylxanthine. The anti-cAMP antibody reagent was then added to cells at a 1:2 ratio and 5 μL of mixture was seeded in 384-well small volume white assay plates, at 10,000 cells/well. Cells were then treated with 50 nL compound using an ECHO 550 acoustic dispenser (Labcyte) in a 20-point dose response format in triplicate for 30 min. Cells were then lysed, and detection reagents added according to the manufacturer's protocol. After overnight incubation, luminescence was measured using a Perkin Elmer Envision plate reader. Dose response curves were analyzed using GraphPad Prism 9.0.
In the Table, EC50 values are designated as follows: • A: 0 nM<EC50<0.1 nM; • B: 0.1 nM≤EC50<1.0 nM; • C: 1.0 nM≤EC50<10.0 nM; • D: 10.0 nM≤EC50<100 nM; • E: 100 nM≤EC50<500 nM; and • F: ≥500 nM

T1 sequence (P43220 24-463): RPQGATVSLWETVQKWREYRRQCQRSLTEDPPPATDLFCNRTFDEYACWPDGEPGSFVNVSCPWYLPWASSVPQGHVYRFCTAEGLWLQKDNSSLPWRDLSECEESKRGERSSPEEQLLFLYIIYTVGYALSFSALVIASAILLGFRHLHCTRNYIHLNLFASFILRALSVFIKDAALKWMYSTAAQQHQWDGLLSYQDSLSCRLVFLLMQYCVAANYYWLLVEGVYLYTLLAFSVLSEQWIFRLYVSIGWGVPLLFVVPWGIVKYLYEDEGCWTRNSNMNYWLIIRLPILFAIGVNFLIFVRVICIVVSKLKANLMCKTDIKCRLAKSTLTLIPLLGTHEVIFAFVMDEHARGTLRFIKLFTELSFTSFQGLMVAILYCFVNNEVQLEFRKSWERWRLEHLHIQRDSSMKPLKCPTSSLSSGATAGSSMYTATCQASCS

First: C[C@H]1C[C@@H](Oc2ccnc(COc3ccc(F)cc3C#N)n2)CCN1Cc1nc2ccc(C(=O)O)c(F)c2n1C[C@@H]1CCO1 [Compound 573, 2-{[(2S,4S)-4-({2-[(2-cyano-4-fluorophenoxy)methyl]pyrimidin-4-yl}oxy)-2-methylpiperidin-1-yl]methyl}-7-fluoro-1-{[(2S)-oxetan-2-yl]methyl}-1H-1,3-benzodiazole-6-carboxylic acid]
Second: C[C@H]1C[C@@H](Oc2ccnc(COc3ccc(F)cc3C#N)n2)CCN1Cc1nc2cnc(C(=O)O)cc2n1C[C@@H]1CCO1 [Compound 574, 2-{[(2S,4S)-4-({2-[(2-cyano-4-fluorophenoxy)methyl]pyrimidin-4-yl}oxy)-2-methylpiperidin-1-yl]methyl}-1-{[(2S)-oxetan-2-yl]methyl}-1H-imidazo[4,5-c]pyridine-6-carboxylic acid]
The EC50 of the first is lower: less than 0.1 nM for the first, 1 to 10 nM for the second.

`C[C@H]1C[C@@H](Oc2ccnc(COc3ccc(F)cc3F)n2)CCN1Cc1nc2ccc(C(=O)O)cc2n1C[C@H]1CCOC1` [Compound 575, 2-{[(2S,4S)-4-({2-[(2,4-Difluorophenoxy)methyl]pyrimidin-4-yl}oxy)-2-methylpiperidin-1-yl]methyl}-1-{[(3R)-oxolan-3-yl]methyl}-1H-1,3-benzodiazole-6-carboxylic acid] and `C[C@H]1C[C@@H](Oc2ccnc(COc3ccc(F)cc3F)n2)CCN1Cc1nc2ccc(C(=O)O)cc2n1C[C@@H]1CCOC1` [Compound 584, 2-{[(2S,4S)-4-({2-[(2,4-Difluorophenoxy)methyl]pyrimidin-4-yl}oxy)-2-methylpiperidin-1-yl]methyl}-1-{[(3S)-oxolan-3-yl]methyl}-1H-1,3-benzodiazole-6-carboxylic acid] fall in the same range of EC50: 0.1 to 1 nM for the first, 0.1 to 1 nM for the second.

Compared with `C[C@H]1C[C@@H](Oc2ccnc(COc3ccc(F)cc3F)n2)CCN1Cc1nc2c(F)cc(C(=O)O)cc2n1C[C@@H]1CCO1` [Compound 576, 2-{[(2S,4S)-4-({2-[(2,4-di-fluorophenoxy)methyl]pyrimidin-4-yl}oxy)-2-methylpiperidin-1-yl]methyl}-4-fluoro-1-{[(2S)-oxetan-2-yl]methyl}-1H-1,3-benzodiazole-6-carboxylic acid], `Cc1cc2nc(CN3CC[C@H](Oc4ccnc(COc5ccc(F)cc5F)n4)C[C@@H]3C)n(C[C@@H]3CCO3)c2cc1C(=O)O` [Compound 585, 2-{[(2S,4S)-4-({2-[(2,4-Difluorophenoxy)methyl]pyrimidin-4-yl}oxy)-2-methylpiperidin-1-yl]methyl}-5-methyl-1-{[(2S)-oxetan-2-yl]methyl}-1H-1,3-benzodiazole-6-carboxylic acid] is higher in EC50: less than 0.1 nM for the first, 0.1 to 1 nM for the second. The first is the more potent here.

`CO[C@H]1COC[C@H]1n1c(CN2CC[C@H](Oc3ccnc(COc4ccc(F)cc4F)n3)C[C@@H]2C)nc2ccc(C(=O)O)cc21` [Compound 577, 2-(((2S,4S)-4-((2-((2,4-Difluorophenoxy)methyl)pyrimidin-4-yl)oxy)-2-methylpiperidin-1-yl)methyl)-1-((3R,4R)-4-methoxytetrahydrofuran-3-yl)-1H-benzo[d]imidazole-6-carboxylic acid] and `C[C@H]1C[C@@H](Oc2ccnc(COc3ccc(F)cc3F)n2)CCN1Cc1nc2ccc(C(=O)O)cc2n1CC1(F)COC1` [Compound 582, 2-{[(2S,4S)-4-({2-[(2,4-Difluorophenoxy)methyl]pyrimidin-4-yl}oxy)-2-methylpiperidin-1-yl]methyl}-1-[(3-fluorooxetan-3-yl)methyl]-1H-1,3-benzodiazole-6-carboxylic acid] fall in the same range of EC50: 0.1 to 1 nM for the first, 0.1 to 1 nM for the second.

`C[C@H]1C[C@@H](Oc2ccnc(COc3ccc(C#N)cc3F)n2)CCN1Cc1nc2ccc(C(=O)O)cc2n1C[C@@H]1CCOC1` [Compound 578, 2-{[(2S,4S)-4-({2-[(4-cyano-2-fluorophenoxy)methyl]pyrimidin-4-yl}oxy)-2-methylpiperidin-1-yl]methyl}-1-{[(3S)-oxolan-3-yl]methyl}-1H-1,3-benzodiazole-6-carboxylic acid] and `C[C@H]1C[C@@H](Oc2ccnc(COc3ccc(C#N)cc3F)n2)CCN1Cc1nc2ccc(C(=O)O)cc2n1C[C@@H]1CCCO1` [Compound 579, 2-{[(2S,4S)-4-({2-[(4-cyano-2-fluorophenoxy)methyl]pyrimidin-4-yl}oxy)-2-methylpiperidin-1-yl]methyl}-1-{[(2S)-oxolan-2-yl]methyl}-1H-1,3-benzodiazole-6-carboxylic acid] fall in the same range of EC50: 0.1 to 1 nM for the first, 0.1 to 1 nM for the second.

`N#Cc1ccc(OCc2nccc(OC3CCN(Cc4nc5cnc(C(=O)O)cc5n4C[C@@H]4CCO4)CC3)n2)c(F)c1` [Compound 580, 2-{[4-({2-[(4-Cyano-2-fluorophenoxy)methyl]pyrimidin-4-yl}oxy)piperidin-1-yl]methyl}-1-{[(2S)-oxetan-2-yl]methyl}-1H-imidazo[4,5-c]pyridine-6-carboxylic acid] and `CC[C@@H]1C[C@H](Oc2ccnc(COc3ccc(C#N)cc3F)n2)CCN1Cc1nc2ccc(C(=O)O)cc2n1C[C@@H]1CCO1` [Compound 586, 2-{[(2R,4R)-4-({2-[(4-Cyano-2-fluorophenoxy)methyl]pyrimidin-4-yl}oxy)-2-ethylpiperidin-1-yl]methyl}-1-{[(2S)-oxetan-2-yl]methyl}-1H-1,3-benzodiazole-6-carboxylic acid] fall in the same range of EC50: 1 to 10 nM for the first, 1 to 10 nM for the second.

First: C[C@H]1C[C@@H](Oc2nc(COc3ccc(F)cc3F)ncc2F)CCN1Cc1nc2ccc(C(=O)O)cc2n1C[C@@H]1CCO1 [Compound 581, 2-{[(2S,4S)-4-({2-[(2,4-difluorophenoxy)methyl]-5-fluoropyrimidin-4-yl}oxy)-2-methylpiperidin-1-yl]methyl}-1-{[(2S)-oxetan-2-yl]methyl}-1H-1,3-benzodiazole-6-carboxylic acid]
Second: C[C@H]1C[C@@H](Oc2ccnc(COc3ccc(F)cc3F)n2)CCN1Cc1nc2ccc(C(=O)O)cc2n1C[C@@H]1CCCO1 [Compound 589, 2-{[(2S,4S)-4-({2-[(2,4-Difluorophenoxy)methyl]pyrimidin-4-yl}oxy)-2-methylpiperidin-1-yl]methyl}-1-{[(2S)-oxolan-2-yl]methyl}-1H-1,3-benzodiazole-6-carboxylic acid]
The EC50 of the first is lower: less than 0.1 nM for the first, 0.1 to 1 nM for the second. The first is the more potent here.

`C[C@H]1C[C@@H](Oc2ccnc(COc3ccc(F)cc3F)n2)CCN1Cc1nc2ccc(C(=O)O)cc2n1CC1(C(F)F)COC1` [Compound 583, 1-{[3-(difluoromethyl)oxetan-3-yl]methyl}-2-{[(2S,4S)-4-({2-[(2,4-difluorophenoxy)methyl]pyrimidin-4-yl}oxy)-2-methylpiperidin-1-yl]methyl}-1H-1,3-benzodiazole-6-carboxylic acid] and `C[C@@H](Cn1c(CN2CC[C@H](Oc3ccnc(COc4ccc(F)cc4F)n3)C[C@@H]2C)nc2ccc(C(=O)O)cc21)OC(F)F` [Compound 591, 1-[(2S)-2-(Difluoromethoxy)propyl]-2-{[(2S,4S)-4-({2-[(2,4-difluorophenoxy)methyl]pyrimidin-4-yl}oxy)-2-methylpiperidin-1-yl]methyl}-1H-1,3-benzodiazole-6-carboxylic acid] fall in the same range of EC50: 0.1 to 1 nM for the first, 0.1 to 1 nM for the second.

First: CC[C@H]1C[C@@H](Oc2ccnc(COc3ccc(C#N)cc3F)n2)CCN1Cc1nc2ccc(C(=O)O)cc2n1C[C@@H]1CCO1 [Compound 587, 2-{[(2S,4S)-4-({2-[(4-Cyano-2-fluorophenoxy)methyl]pyrimidin-4-yl}oxy)-2-ethylpiperidin-1-yl]methyl}-1-{[(2S)-oxetan-2-yl]methyl}-1H-1,3-benzodiazole-6-carboxylic acid]
Second: C[C@H]1C[C@@H](Oc2ccnc(COc3ccc(F)cc3F)n2)CCN1Cc1nc2ccc(C(=O)O)cc2n1CC1CCC1 [Compound 590, 1-(Cyclobutylmethyl)-2-{[(2S,4S)-4-({2-[(2,4-difluorophenoxy)methyl]pyrimidin-4-yl}oxy)-2-methylpiperidin-1-yl]methyl}-1H-1,3-benzodiazole-6-carboxylic acid]
The EC50 of the first is lower: less than 0.1 nM for the first, 0.1 to 1 nM for the second.

First: C[C@H]1C[C@@H](Oc2ccnc(COc3ccc(F)cc3F)n2)CCN1Cc1nc2ccc(C(=O)O)cc2n1CCOCC(F)(F)F [Compound 588, 2-{[(2S,4S)-4-({2-[(2,4-Difluorophenoxy)methyl]pyrimidin-4-yl}oxy)-2-methylpiperidin-1-yl]methyl}-1-[2-(2,2,2-trifluoroethoxy)ethyl]-1H-1,3-benzodiazole-6-carboxylic acid]
Second: C[C@H](Cn1c(CN2CC[C@H](Oc3ccnc(COc4ccc(F)cc4F)n3)C[C@@H]2C)nc2ccc(C(=O)O)cc21)OCC(F)(F)F [Compound 594, 2-{[(2S,4S)-4-({2-[(2,4-Difluorophenoxy)methyl]pyrimidin-4-yl}oxy)-2-methylpiperidin-1-yl]methyl}-1-[(2R)-2-(2,2,2-trifluoroethoxy)propyl]-1H-1,3-benzodiazole-6-carboxylic acid]
The EC50 of the first is lower: less than 0.1 nM for the first, 1 to 10 nM for the second.

For `C[C@H](Cn1c(CN2CC[C@H](Oc3ccnc(COc4ccc(F)cc4F)n3)C[C@@H]2C)nc2ccc(C(=O)O)cc21)OC(F)F` [Compound 592, 1-[(2R)-2-(Difluoromethoxy)propyl]-2-{[(2S,4S)-4-({2-[(2,4-difluorophenoxy)methyl]pyrimidin-4-yl}oxy)-2-methylpiperidin-1-yl]methyl}-1H-1,3-benzodiazole-6-carboxylic acid], the EC50 was less than 0.1 nM.
